Earlier results in patent US12616206B2, “Graphene-silver nanocomposites and uses for same as an antimicrobial composition” (ZENTEK LTD., priority 2020, dated 2026).

Key:
Conditions in all cases: literature value, source by footnote a-g
Streptococcus pyogenes = system: Streptococcus pyogenes
Vibrio cholerae = system: Vibrio cholerae
Salmonella typhi = system: Salmonella typhi
Candida albicans = system: Candida albicans

For `O=[N+]([O-])[O-].[Ag+]` [AgNO3, silver nitrate], the MIC (Streptococcus pyogenes) is listed as 80 ^c μg/mL, the MIC (Vibrio cholerae) is listed as 70 ^c μg/mL and the MIC (Salmonella typhi) is listed as 110 ^c μg/mL. The MIC (Candida albicans) was 4.9 ^f μg/mL.
